The text below walks through data of patent US10538555B2, “Macrocyclic inhibitors of the PD-1/PD-L1 and CD80(B7-1)/PD-L1 protein/protein interactions” (BRISTOL-MYERS SQUIBB COMPANY, priority 2014, dated 2020).

In this assay the target is T1, Human PD-L1/PD-1 (Homo sapiens, UniProt Q9NZQ7).
T1 construct: TVMV protease cleavage site (C); made in house; host or cells: HEK293T cells
Nature of the assay: HTRF Human PD-L1/PD-1 binding assay (PD-1-Ig/PD-L1-His). Conditions: PD-L1-His 10 nM, PD-1-Ig 20 nM. A digest of the protocol:
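Inhibitors were preincubated 15 min with human PD-L1(18-239)-His (10 nM final), then PD-1(25-167)-Ig (20 nM final) was added for 15 min in dPBS/0.1% BSA/0.05% Tween-20. Eu-cryptate anti-Ig (1 nM) and APC anti-His (20 nM) were added; 665/620 nm ratio read after 30 min.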

Setting [1] is: class symbol, read-out: HTRF Human PD-L1/PD-1 Binding Assay IC50 Range.
[2] abbreviates: read-out: HTRF Human PD-L1/PD-1 Binding Assay IC50.

Where two headings read alike, the source gives them in different places. *1 amine or outer side, *2 acyl side, *3 side chain or, on linkers, in order; H or OH if unused. Where a SMILES comes first, the peptide text is derived from it. Bridges are numbered along the chain shown (N, C = ends). [ ]: non-standard residue; d: D form. ξ: configuration not given here. Trp(1-CH2COOH) = N[C@@H](Cc1cn(CC(=O)O)c2ccccc12)C(=O)O; Trp(βS-Me) = C[C@@H](c1c[nH]c2ccccc12)[C@H](N)C(=O)O; Phe(3,4,5-F3) = N[C@@H](Cc1cc(F)c(F)c(F)c1)C(=O)O; Phe(3,4-F2) = N[C@@H](Cc1ccc(F)c(F)c1)C(=O)O; d(cisHyp) = O=C(O)[C@H]1C[C@@H](O)CN1; Bta = N[C@@H](Cc1csc2ccccc12)C(=O)O; NMeY = CN[C@@H](Cc1ccc(O)cc1)C(=O)O; Hyp = O=C(O)[C@@H]1C[C@@H](O)CN1; NMeF = CN[C@@H](Cc1ccccc1)C(=O)O; X1 = O=C([C@H]1COCCN1[*:1])[*:2]; dHyp = O=C(O)[C@H]1C[C@H](O)CN1; NMehSer = CN[C@@H](CCO)C(=O)O; NMeNle = CCCC[C@H](NC)C(=O)O; Tle = CC(C)(C)[C@H](N)C(=O)O; Pip = O=C(O)[C@@H]1CCCCN1; hSer = N[C@@H](CCO)C(=O)O; NMeA = CN[C@@H](C)C(=O)O; Orn = NCCC[C@H](N)C(=O)O; dNMeA = CN[C@H](C)C(=O)O; Dab = NCC[C@H](N)C(=O)O; Dap = NC[C@H](N)C(=O)O; ξC = NC(CS)C(=O)O

T1 sequence (Q9NZQ7 with tags, fused parts or gaps): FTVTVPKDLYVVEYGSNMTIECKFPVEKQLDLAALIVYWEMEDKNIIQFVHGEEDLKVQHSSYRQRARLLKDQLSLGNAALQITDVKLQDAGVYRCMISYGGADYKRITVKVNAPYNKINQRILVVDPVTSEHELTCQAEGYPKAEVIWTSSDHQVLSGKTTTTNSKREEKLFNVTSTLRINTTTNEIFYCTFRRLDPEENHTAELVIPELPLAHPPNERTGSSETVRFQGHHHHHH

For the molecule `CCCC[C@H]1C(=O)N(C)[C@@H](CCCC)C(=O)N[C@@H](CCC(=O)O)C(=O)NC(C(=O)NCC(N)=O)CSCC(=O)N[C@@H](Cc2ccc(O)cc2)C(=O)N(C)[C@@H](C)C(=O)N[C@@H](CC(N)=O)C(=O)N2CCC[C@H]2C(=O)N[C@@H](Cc2c[nH]cn2)C(=O)N[C@@H](CC(N)=O)C(=O)N2CCC[C@H]2C(=O)N[C@@H](Cc2c[nH]c3ccccc23)C(=O)N[C@@H](CC(=O)O)C(=O)N[C@@H](Cc2c[nH]c3ccccc23)C(=O)N1C` (some centres unmarked) [Example 9174] ({CH2CO}-Y[NMeA]NPHNPWDW[NMeNle][NMeNle]E[ξC]G-NH2; thioether N-14), under setting [1], the IC50 lay within 100 to 990 nM.

`CCCC[C@H]1C(=O)N(C)[C@@H](CCCC)C(=O)N[C@@H](CCCNC(=N)N)C(=O)N[C@H](C(N)=O)CSCC(=O)N[C@@H](Cc2ccc(O)cc2)C(=O)N(C)[C@@H](C)C(=O)N[C@@H](CC(N)=O)C(=O)N2CCC[C@H]2C(=O)N[C@@H](CC(N)=O)C(=O)N[C@@H](CC(C)C)C(=O)N2C[C@H](O)C[C@H]2C(=O)N[C@@H]([C@@H](C)c2c[nH]c3ccccc23)C(=O)N[C@@H](CO)C(=O)N[C@@H](Cc2c[nH]c3ccccc23)C(=O)N1C` [Example 10531] ({CH2CO}-Y[NMeA]NPNL[Hyp][Trp(βS-Me)]SW[NMeNle][NMeNle]RC-NH2; thioether N-14): the IC50 under setting [1] lay in the range of 1 to 9.9 nM.

With `CCCC[C@H]1C(=O)N2CCC[C@@H]2C(=O)N[C@@H](CC(=O)O)C(=O)N[C@@H](C(C)C)C(=O)N(C)[C@@H](Cc2ccccc2)C(=O)N[C@@H](CCC(=O)O)C(=O)N2CCOC[C@@H]2C(=O)N[C@@H](Cc2c[nH]c3ccccc23)C(=O)N[C@@H](Cc2ccc(O)cc2)C(=O)N[C@@H](CCN)C(=O)N[C@H](C(=O)NCC(N)=O)CSCC(=O)N[C@@H](Cc2cc(F)c(F)c(F)c2)C(=O)N(C)[C@@H](Cc2ccc(O)cc2)C(=O)N1C` [Example 10616] ({CH2CO}-[Phe(3,4,5-F3)][NMeY][NMeNle][dP]DV[NMeF]E[X1]WY[Dab]CG-NH2; thioether N-13), under setting [2], the IC50 was found to be 10.6 nM.

As for `CCCC[C@H]1C(=O)N2CCOC[C@@H]2C(=O)N[C@@H](CC(=O)O)C(=O)N[C@@H](C(C)C)C(=O)N(C)[C@@H](Cc2ccccc2)C(=O)N[C@@H](CCCN)C(=O)N2CCC[C@@H]2C(=O)N[C@@H](Cc2c[nH]c3ccccc23)C(=O)N[C@@H](Cc2ccc(O)cc2)C(=O)N[C@@H](CCOC)C(=O)N[C@H](C(=O)NCC(N)=O)CSCC(=O)N[C@@H](Cc2cc(F)c(F)c(F)c2)C(=O)N(C)[C@@H](Cc2ccccc2)C(=O)N1C` [Example 10190] ({CH2CO}-[Phe(3,4,5-F3)][NMeF][NMeNle][X1]DV[NMeF][Orn][dP]WY[hSer](Me)CG-NH2; thioether N-13), under setting [2], the IC50 was found to be 8.2 nM.

As for `CCCC[C@H]1C(=O)N[C@@H](CC(N)=O)C(=O)N2CCC[C@H]2C(=O)N[C@@H](CO)C(=O)N[C@@H](CCO)C(=O)N2C[C@H](O)C[C@H]2C(=O)N[C@@H](Cc2c[nH]c3ccccc23)C(=O)N[C@@H](CO)C(=O)N[C@@H](Cc2c[nH]c3ccccc23)C(=O)N(C)[C@@H](C)C(=O)N(C)[C@@H](C)C(=O)N[C@@H](CCC(=O)O)C(=O)NC(C(=O)NCC(N)=O)CSCC(=O)N[C@@H](Cc2ccc(O)cc2)C(=O)N1C` (some centres unmarked) [Example 10212] ({CH2CO}-Y[NMeNle]NPS[hSer][Hyp]WSW[NMeA][NMeA]E[ξC]G-NH2; thioether N-14), the IC50 under setting [1] was 1000 to 10000 nM.

For the molecule `CCCC[C@H]1C(=O)N2C[C@H](O)C[C@@H]2C(=O)N[C@@H](CC(=O)O)C(=O)N[C@@H](C(C)C)C(=O)N(C)[C@@H](Cc2ccccc2)C(=O)N[C@@H](Cc2ccc(O)cc2)C(=O)N2CCOC[C@@H]2C(=O)N[C@@H](Cc2c[nH]c3ccccc23)C(=O)N[C@@H](Cc2ccc(O)cc2)C(=O)N[C@@H](CCOC)C(=O)N[C@H](C(=O)NCC(N)=O)CSCC(=O)N[C@@H](Cc2cc(F)c(F)c(F)c2)C(=O)N(C)[C@@H](Cc2ccccc2)C(=O)N1C` [Example 10160] ({CH2CO}-[Phe(3,4,5-F3)][NMeF][NMeNle][d(cisHyp)]DV[NMeF]Y[X1]WY[hSer](Me)CG-NH2; thioether N-13), the IC50 under setting [1] fell in the range of 1 to 9.9 nM.

Turning to `CCCC[C@H]1C(=O)N(C)[C@H](C)C(=O)N[C@@H](CC(=O)O)C(=O)N[C@@H](C(C)C)C(=O)N(C)[C@@H](Cc2ccccc2)C(=O)N[C@@H](Cc2ccc(O)cc2)C(=O)N(C)[C@H](C)C(=O)N[C@@H](Cc2c[nH]c3ccccc23)C(=O)N[C@@H](Cc2ccc(O)cc2)C(=O)N[C@@H](CC(C)C)C(=O)N[C@H](C(=O)NCC(N)=O)CSCC(=O)N[C@@H](Cc2cc(F)c(F)c(F)c2)C(=O)N(C)[C@@H](Cc2ccccc2)C(=O)N1C` [Example 3224] ({CH2CO}-[Phe(3,4,5-F3)][NMeF][NMeNle][dNMeA]DV[NMeF]Y[dNMeA]WYLCG-NH2; thioether N-13), under setting [1], the IC50 lay within 10 to 99.9 nM.

Turning to `CCCC[C@H]1C(=O)N2C[C@H](O)C[C@@H]2C(=O)N[C@@H](CC(=O)O)C(=O)N[C@@H](C(C)C)C(=O)N(C)[C@@H](Cc2ccccc2)C(=O)N[C@@H](CCN)C(=O)N2C[C@H](O)C[C@@H]2C(=O)N[C@@H](Cc2c[nH]c3ccccc23)C(=O)N[C@@H](Cc2ccc(O)cc2)C(=O)N[C@@H](CC(C)C)C(=O)N[C@H](C(=O)NCC(N)=O)CSCC(=O)N[C@@H](Cc2ccc(F)c(F)c2)C(=O)N(C)[C@@H](Cc2ccccc2)C(=O)N1C` [Example 9298] ({CH2CO}-[Phe(3,4-F2)][NMeF][NMeNle][d(cisHyp)]DV[NMeF][Dab][d(cisHyp)]WYLCG-NH2; thioether N-13), under setting [1], the IC50 is 1 to 9.9 nM.

For `COCC[C@H]1C(=O)N2C[C@@H](O)C[C@@H]2C(=O)N[C@@H](CC(=O)O)C(=O)N[C@@H](C(C)C)C(=O)N(C)[C@@H](Cc2ccccc2)C(=O)N[C@@H](CCC(N)=O)C(=O)N2CCOC[C@@H]2C(=O)N[C@@H](Cc2c[nH]c3ccccc23)C(=O)N[C@@H](Cc2ccc(O)cc2)C(=O)N[C@@H](CC(C)C)C(=O)N[C@H](C(=O)NCC(N)=O)CSCC(=O)N[C@@H](Cc2cc(F)c(F)c(F)c2)C(=O)N(C)[C@@H](Cc2ccccc2)C(=O)N1C` [Example 9266] ({CH2CO}-[Phe(3,4,5-F3)][NMeF][NMehSer](Me)[dHyp]DV[NMeF]Q[X1]WYLCG-NH2; thioether N-13), the IC50 under setting [1] was 1 to 9.9 nM.

With `CCCC[C@H]1C(=O)N2CCC[C@@H]2C(=O)N[C@@H](CC(=O)O)C(=O)N[C@@H](C(C)(C)C)C(=O)N(C)[C@@H](Cc2ccccc2)C(=O)N[C@@H](Cc2ccc(O)cc2)C(=O)N2CCOC[C@@H]2C(=O)N[C@@H](Cc2c[nH]c3ccccc23)C(=O)N[C@@H](Cc2ccc(O)cc2)C(=O)N[C@@H](CC(C)C)C(=O)N[C@H](C(=O)NCC(N)=O)CSCC(=O)N[C@@H](Cc2cc(F)c(F)c(F)c2)C(=O)N(C)[C@@H](Cc2ccccc2)C(=O)N1C` [Example 3223] ({CH2CO}-[Phe(3,4,5-F3)][NMeF][NMeNle][dP]D[Tle][NMeF]Y[X1]WYLCG-NH2; thioether N-13), the IC50 under setting [1] is 1 to 9.9 nM.

For the molecule `CCCC[C@H]1C(=O)N(C)[C@@H](CCCC)C(=O)N[C@@H](CN)C(=O)N[C@H](C(=O)NCC(N)=O)CSCC(=O)N[C@@H](Cc2ccc(O)cc2)C(=O)N2CCCC[C@H]2C(=O)N[C@@H](CC(N)=O)C(=O)N2CCC[C@H]2C(=O)N[C@@H](CN)C(=O)N[C@@H](CCC(=O)O)C(=O)N2C[C@H](O)C[C@H]2C(=O)N[C@@H](Cc2c[nH]c3ccccc23)C(=O)N[C@@H](CCN)C(=O)N[C@@H](Cc2c[nH]c3ccccc23)C(=O)N1C` [Example 1519] ({CH2CO}-Y[Pip]NP[Dap]E[Hyp]W[Dab]W[NMeNle][NMeNle][Dap]CG-NH2; thioether N-14), the IC50 under setting [1] was 1 to 9.9 nM.

As for `CCCC[C@H]1C(=O)N(C)[C@@H](CCCC)C(=O)N[C@@H](C)C(=O)N[C@H](C(=O)NCC(N)=O)CSCC(=O)N[C@@H](Cc2ccc(O)cc2)C(=O)N2CCCC[C@H]2C(=O)N[C@@H](CC(=O)O)C(=O)N2CCC[C@H]2C(=O)N[C@@H](Cc2cnc[nH]2)C(=O)N[C@@H](CCC(N)=O)C(=O)N2C[C@H](O)C[C@H]2C(=O)N[C@@H](Cc2c[nH]c3ccccc23)C(=O)N[C@@H](CO)C(=O)N[C@@H](Cc2csc3ccccc23)C(=O)N1C` [Example 1509] ({CH2CO}-Y[Pip]DPHQ[Hyp]WS[Bta][NMeNle][NMeNle]ACG-NH2; thioether N-14), the IC50 under setting [1] fell in the range of 10 to 99.9 nM.

As for `CCCC[C@H]1C(=O)N(C)[C@@H](CCCC)C(=O)N[C@@H](CO)C(=O)N[C@H](C(=O)NCC(N)=O)CSCC(=O)N[C@@H](Cc2ccc(OC)cc2)C(=O)N(C)[C@@H](C)C(=O)N[C@@H](CC(N)=O)C(=O)N2CCC[C@H]2C(=O)N[C@@H](CO)C(=O)N[C@@H](CCC(N)=O)C(=O)N2C[C@H](O)C[C@H]2C(=O)N[C@@H](Cc2c[nH]c3ccccc23)C(=O)N[C@@H](CO)C(=O)N[C@@H](Cc2cn(CC(=O)O)c3ccccc23)C(=O)N1C` [Example 7144] ({CH2CO}-Y(Me)[NMeA]NPSQ[Hyp]WS[Trp(1-CH2COOH)][NMeNle][NMeNle]SCG-NH2; thioether N-14), under setting [1], the IC50 lay in the range of 1 to 9.9 nM.

In the case of `CCCC[C@H]1C(=O)N2C[C@H](O)C[C@@H]2C(=O)N[C@@H](CC(=O)O)C(=O)N[C@@H](C(C)C)C(=O)N(C)[C@@H](Cc2ccccc2)C(=O)N[C@@H](Cc2ccc(O)cc2)C(=O)N2C[C@H](O)C[C@@H]2C(=O)N[C@@H](Cc2c[nH]c3ccccc23)C(=O)N[C@@H](Cc2ccc(O)cc2)C(=O)N[C@@H](CCC(N)=O)C(=O)N[C@H](C(=O)NCC(N)=O)CSCC(=O)N[C@@H](Cc2cc(F)c(F)c(F)c2)C(=O)N(C)[C@@H](Cc2ccccc2)C(=O)N1C` [Example 9328] ({CH2CO}-[Phe(3,4,5-F3)][NMeF][NMeNle][d(cisHyp)]DV[NMeF]Y[d(cisHyp)]WYQCG-NH2; thioether N-13), the IC50 under setting [1] was in the range of 10 to 99.9 nM.
